Data taken from patent US12171229B2, “Heteroaryl-triazole and heteroaryl-tetrazole compounds as pesticides” (BAYER AKTIENGESELLSCHAFT, priority 2018, dated 2024).

How the values were obtained:
Type in all cases: in vivo
Diabrotica balteata = Diabrotica balteata spray test; conditions: after 7 days, larvae on wheat seeds; for pest or weed control at 160 µg/disc, 500 g/ha / pest or weed control at 80 µg/disc, 250 g/ha: Diabrotica balteata, in Triticum aestivum, 168 h, read-out: efficacy (seedlings grown up); for pest or weed control at 80 µg/disc, 250 g/ha: 80 μg/well (=250 g/ha)
Procedure: Diabrotica balteata—Spray Test [table] To produce a suitable preparation of active compound, 1 part by weight of active compound is mixed with the stated amount of solvent, and the concentrate is diluted with water, containing an emulsifier concentration of 1000 ppm, to the desired concentration. Further test concentrations are prepared by dilution with emulsifier containing water. Soaked wheat seeds (Triticum aestivum) are placed in a multiple well plate filled with agar and some water and are incubated for 1 day to germinate (5 seeds per well). The germinated wheat seeds are sprayed with a test solution containing the desired concentration of the active ingredient. Afterwards each unit is infected with 10-20 larvae of the banded cucumber beetle (Diabrotica balteata). After 7 days efficacy in % is determined. 100% means all the seedlings have grown up like in the untreated, uninfected control; 0% means none of the seedlings have grown.

Boophilus microplus = Boophilus microplus injection test; conditions: 20 μg/animal injected into the abdomen, adult engorged female ticks, egg deposition after 7 days; for pest or weed control at 0.02 mg: Rhipicephalus microplus, 168 h, read-out: efficacy (infertile eggs)
Procedure: Boophilus Microplus—Injection Test Solvent: dimethyl sulfoxide To produce a suitable preparation of active compound, 10 mg of active compound are dissolved in 0.5 ml solvent, and the concentrate is diluted with solvent to the desired concentration. Five adult engorged female ticks (Boophilus microplus) are injected with 1 μl compound solution into the abdomen. The ticks are transferred into replica plates and incubated in a climate chamber. After 7 days egg deposition of fertile eggs is monitored. Eggs where fertility is not visible are stored in a climate chamber till hatching after about 42 days. An efficacy of 100% means all eggs are infertile; 0% means all eggs are fertile.

Ctenocephalides felis = Ctenocephalides felis oral test; conditions: 48 h, 100 ppm in cattle blood, after 2 days, adult unfed cat fleas
Procedure: Ctenocephalides Felis—Oral Test
Solvent: dimethyl sulfoxide
To produce a suitable preparation of active compound, 10 mg of active compound are dissolved in 0.5 ml solvent, and the concentrate is diluted with cattle blood to the desired concentration.
Approximately 20 adult unfed cat fleas (Ctenocephalides felis) are placed in flea chambers. The blood chamber, sealed with parafilm on the bottom, are filled with cattle blood supplied with compound solution and placed on the gauze covered top of the flea chamber, so that the fleas are able to suck the blood. The blood chamber is heated to 37° C. whereas the flea chamber is kept at room temperature.
After 2 days mortality in % is determined. 100% means all the fleas have been killed; 0% means none of the fleas have been killed.

Spodoptera frugiperda = Spodoptera frugiperda spray test; conditions: 168 h, after 7 days, larvae on maize leaf sections
Procedure: Spodoptera frugiperda—Spray Test
(§1) To produce a suitable preparation of active compound, 1 part by weight of active compound is mixed with the stated amount of solvents and is diluted with water, containing an emulsifier concentration of 1000 ppm, to the desired concentration. Further test concentrations are prepared by dilution with emulsifier containing water.
Maize (Zea mays) leaf sections are sprayed with a preparation of the active ingredient of the desired concentration. Once dry, the leaf sections are infested with fall armyworm larvae (Spodoptera frugiperda).
After 7 days mortality in % is determined. 100% means all caterpillars have been killed and 0% means none of the caterpillars have been killed.

Nezara viridula = Nezara viridula spray test; conditions: 96 h, after 4 days, larvae on barley plants
Procedure: Nezara viridula—Spray Test
as §1, with “solvent,” for “solvents”, “and the concentrate” for “and”
Barley plants (Hordeum vulgare) infested with larvae of the southern green stink bug (Nezara viridula) are sprayed with a test solution containing the desired concentration of the active ingredient.
After 4 days mortality in % is determined. 100% means all the stink bugs have been killed: 0% means none of the stink bugs have been killed.

| SMILES | pest or weed control at 160 µg/disc, 500 g/ha (Diabrotica balteata; 160 μg/well (=500 g/ha)) [%] | mortality at 100 ppm (Ctenocephalides felis) [%] | pest or weed control at 80 µg/disc, 250 g/ha (Diabrotica balteata) [%] | pest or weed control at 0.02 mg (Boophilus microplus) [%] | other results |
| --- | --- | --- | --- | --- | --- |
| C[C@H](NC(=O)c1cc(Cl)cc(C(F)(F)F)c1)c1ncnn1C1CCS(=O)(=O)C1 (single isomer, unassigned) [Example I-025] | – | – | – | – | efficacy (seedlings grown up) (Diabrotica balteata; 160 μg/well (=500 g/ha)): 80%; efficacy (infertile eggs) (Boophilus microplus): 100% |
| CC(c1ncnn1-c1cnc2ccccc2n1)N(CC1CC1)C(=O)c1cc(Cl)cc(C(F)(F)F)c1 (stereo not shown) [Example I-004] | 100 | – | – | – | – |
| C[C@H](NC(=O)c1cc(Cl)cc(C(F)(F)F)c1)c1ncnn1-c1ccc(OC(F)(F)F)cn1 [Example I-016] | 100 | 100 | 100 | 100 | mortality at 100 g/ha (Spodoptera frugiperda): 100%; mortality at 500 g/ha (Spodoptera frugiperda): 100% |
| C[C@H](NC(=O)c1cc(Cl)cc(C(F)(F)F)c1)c1ncnn1-c1nnc(C(F)(F)F)s1 [Example I-017] | – | – | – | 90 | – |
| C[C@H](NC(=O)c1cc(Cl)cc(C(F)(F)F)c1)c1ncnn1-c1nc(C(F)F)c(Cl)s1 [Example I-022] | 100 | – | 100 | 100 | mortality at 500 g/ha (Spodoptera frugiperda): 83% |
| C[C@H](NC(=O)c1cc(Cl)cc(C(F)(F)F)c1)c1ncnn1-c1nnc(-c2ccc(F)cc2)s1 [Example I-023] | – | – | – | – | mortality at 100 g/ha (Nezara viridula; 100 g/ha): 100% |
| C[C@H](NC(=O)c1cc(Cl)cc(C(F)(F)F)c1)c1ncnn1-c1ccc(OC(F)F)cn1 [Example I-029] | 100 | – | 100 | – | mortality at 500 g/ha (Nezara viridula; 500 g/ha): 100%; mortality at 100 g/ha (Spodoptera frugiperda): 100%; mortality at 500 g/ha (Spodoptera frugiperda): 100% |
| COC(=O)c1ccc(-n2ncnc2[C@H](C)NC(=O)c2cc(Cl)cc(C(F)(F)F)c2)nc1 [Example I-031] | 100 | – | – | 100 | – |
| C[C@H](NC(=O)c1cc(Cl)cc(C(F)(F)F)c1)c1ncnn1-c1cn(C)nc1C(F)F [Example I-032] | 100 | 100 | 100 | 100 | – |
| C[C@H](NC(=O)c1cc(Cl)cc(C(F)(F)F)c1)c1ncnn1-c1nc(-c2ccccc2F)cs1 [Example I-043] | 100 | – | – | – | – |
| C[C@H](NC(=O)c1cc(Cl)cc(C(F)(F)F)c1)c1ncnn1-c1cn(C)nc1C(F)(F)F [Example I-044] | 80 | 100 | 100 | 100 | – |
| C[C@H](NC(=O)c1cc(Cl)cc(C(F)(F)F)c1)c1ncnn1-c1cccc(C#N)n1 [Example I-055] | – | – | – | 100 | – |
| C[C@H](NC(=O)c1cc(Cl)cc(C(F)(F)F)c1)c1ncnn1-c1nc2ccccc2o1 [Example I-057] | 80 | 90 | 100 | 80 | – |
| C[C@H](NC(=O)c1cc(F)cc(C(F)(F)F)c1)c1ncnn1-c1nc2ccccc2o1 [Example I-058] | – | 100 | – | 100 | – |
| C[C@H](NC(=O)c1cc(Cl)cc(C(F)(F)F)c1)c1ncnn1-c1cccc(OCC(F)(F)F)n1 [Example I-059] | 100 | – | – | – | – |
| C[C@H](NC(=O)c1cc(Cl)cc(C(F)(F)F)c1)c1ncnn1-c1ccc(OCC(F)(F)C(F)(F)F)cn1 [Example I-060] | – | 100 | 80 | – | mortality at 100 g/ha (Spodoptera frugiperda): 100%; mortality at 500 g/ha (Spodoptera frugiperda): 100% |
